Reference: patent US11179391B2, “Compound with kinase inhibitory activity and preparation method and use thereof” (priority 2017, dated 2021)

Experiments:
[1] = tested on: Human breast cancer MDA-MB-361 cells; assay: Pharmacodynamic study on mouse MDA-MB-361 model (subcutaneous xenograft); format: in vivo, SCID Beige mice; conditions: for inhibitory effect on the tumor growth (in words): 15 mg/kg, continuous PO administration for 28 days; for Tumor volume (day 0): baseline at start of dosing; for Tumor volume (day 0) / Tumor volume (day 28) / T/C relative tumor proliferation rate / TGI tumor growth inhibition: methanesulfonic acid salt, 15 mg/kg PO × 28 days; for T/C relative tumor proliferation rate / TGI tumor growth inhibition: day 28
[2] = Pharmacokinetic study in rats; format: in vivo, Sprague-Dawley rats; conditions: for F / Cmax / Tmax / clearance / half-life / AUC(0-t): male Sprague-Dawley rats; for F: iv 2 mg/kg and oral 5 mg/kg; for clearance in rat plasma (in words) / half-life in rat plasma (in words) / level of exposure at 24 h in rat plasma (in words): at the dose of 10 mg/kg; for Cmax / Tmax / clearance / half-life / AUC(0-t): rat, plasma, study dosed iv 2 mg/kg and oral 5 mg/kg, route of this parameter not given; for AUC(0-t): read-out: AUC0-24 h
Protocol: Healthy adult Sprague-Dawley rats, male, 7-10 weeks old, weighing 240-270 g, provided by Beijing Vital River Laboratory Animal Technology Co., Ltd., with an animal certificate number of 1140070278736.
Test compounds of the invention: example 17, 33, 40, and 57.
Intravenous administration solvent system of compounds: 10% (V/V) NMP and 90% (20% (V/V)) SBE-β-CD in 16.667 mM PBS with a concentration of 1.0 mg/mL.
Oral administration solvent system of compounds: pure water system containing 0.1% hydroxyethyl cellulose and 0.5% Tween-80, with a concentration of 1 mg/mL.
Intravenous administration: 3 male Sprague-Dawley rats of each test compound were injected intravenously after fasting overnight, with a dose of 2 mg/kg, and the dosing volume was 2 mL/kg. […]
Before the administration, and after administration of 0.0833 (iv), 0.25, 0.5, 1, 2, 4, 8, 12, and 24 h, the jugular vein puncture (approximately 0.15 mL per time point) of each animal was performed by collecting blood from polypropylene tubes. All blood samples were transferred to pre-cooled EDTA-K2 test tubes or pre-cooled plastic microcentrifuge tubes containing 3 μL of 0.5 M EDTA-K2 as anticoagulant and placed on wet ice until centrifugation. Each collected blood was centrifuged at 4° C. for 15 minutes, and plasma was collected. All plasma would be stored in a freezer at about −80° C. until LCMS/MS detection.

[3] = tested on: Human colorectal cancer Colo-205 cells; assay: Pharmacodynamic study on mouse Colo-205 model (subcutaneous xenograft); format: in vivo, BALB/c nude mice
Description: BALB/c nude mice, 6-8 weeks old, weighing 12-14 g, female, provided by Shanghai Lab Animal Research Center (Shanghai Xipuer-Beikai) with an animal certificate No: 2008001682093.
The experiment was started after 3-7 days in the experimental environment when the animals arrived. Animals were housed in IVC (independent air supply system) cages (Four animals per cage) in SPF grade experimental animal facilities. Each cage animal information card contained the number of animals in the cage, sex, strain, receiving date, dosing schedule, experiment number, group and start date of the experiment. All cages, bedding, and drinking water were sterilized before use and were updated twice a week.
4.3 Tumor Cell Inoculation Method
Human colorectal cancer Colo-205 cells (ATCC-CCL-222) were cultured in vitro in monolayer under the conditions of RPMI 1640 medium with 10% fetal bovine serum, 100 U/mL penicillin and 100 μg/mL streptomycin, and 37° C. 5% CO2 incubator. The passage was routinely digested with trypsin-EDTA twice a week. When the cell saturation was up to 80%-90% and reached the requirement, the cells were collected, counted and inoculated. 0.2 mL (5×10^6) Colo-205 cells were subcutaneously inoculated on the right back of each mouse, and mice were randomly grouped and dosed when the average tumor volume reached 163 mm^3.
4.14 mL of lactic acid was added to a large beaker containing 800 mL of deionized water, and the pH was adjusted to 4.0 with 5 N NaOH. Then the volume was fixed to 1,000 mL to obtain 50 mmol/L sodium lactate buffer.
The subcutaneous tumor volume of nude mice was measured 2-3 times a week, and the mice were weighed, and the data were recorded.
4.6 Analysis and Evaluation
Experimental evaluation index: the tumor growth inhibition rate TGI (%) or the relative tumor proliferation rate T/C (%) was used for evaluation, wherein T was the experimental group, and C was the vehicle group.

CDK1/CyclinB = CDK1/CyclinB (Homo sapiens, UniProt P06493); assay: Determination of CDK activity (Caliper mobility shift, FAM-P8 peptide): CDK1; format: biochemical; conditions: CDK1/CyclinB; read-out: CDK1 enzymatic inhibitory activity (IC50)
[4] = Colo-205 model, mesylate, 50 mg/kg PO × 28 days, day 28

Chain of CDK1/CyclinB (P06493 whole entry): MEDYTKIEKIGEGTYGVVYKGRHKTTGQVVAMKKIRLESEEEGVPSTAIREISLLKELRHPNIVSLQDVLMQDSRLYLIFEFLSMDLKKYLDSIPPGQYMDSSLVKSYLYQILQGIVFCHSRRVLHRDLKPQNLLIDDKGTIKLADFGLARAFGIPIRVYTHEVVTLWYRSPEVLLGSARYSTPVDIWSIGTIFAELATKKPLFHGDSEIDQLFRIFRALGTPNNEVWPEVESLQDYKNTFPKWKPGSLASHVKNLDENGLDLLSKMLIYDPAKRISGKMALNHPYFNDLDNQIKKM
Chain of CDK1/CyclinB (P14635 whole entry partner): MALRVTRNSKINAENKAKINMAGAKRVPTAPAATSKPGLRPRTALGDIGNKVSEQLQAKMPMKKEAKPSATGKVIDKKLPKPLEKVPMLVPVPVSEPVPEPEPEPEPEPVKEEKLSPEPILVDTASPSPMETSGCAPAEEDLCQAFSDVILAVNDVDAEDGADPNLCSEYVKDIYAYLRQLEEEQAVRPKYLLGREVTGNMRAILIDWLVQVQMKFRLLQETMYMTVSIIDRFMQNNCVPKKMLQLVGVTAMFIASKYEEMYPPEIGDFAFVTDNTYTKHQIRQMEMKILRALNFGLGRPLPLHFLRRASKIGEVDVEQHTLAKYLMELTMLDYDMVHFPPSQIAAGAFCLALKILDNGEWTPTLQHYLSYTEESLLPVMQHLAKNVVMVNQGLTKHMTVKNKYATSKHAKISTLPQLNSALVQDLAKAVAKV

Structure (SMILES): CCN1CCC(C(C)c2ccc(Nc3ncc(F)c(-c4cc(F)c5nc(C)n(C(C)C)c5c4)n3)nc2)CC1 (single isomer, unassigned) [Example 17, (R or S)—N-(5-(1-(1-ethylpiperidin-4-yl)ethyl)pyridin-2-yl)-5-fluoro-4-(4-fluoro-1-isopropyl-2-methyl-1H-benzo[d]imidazol-6-yl) pyrimidin-2-amine]
- inhibitory effect on the tumor growth (in words) [1]: very strong inhibitory effect
- Tumor volume (day 0) [1]: 175 mm^3
- Tumor volume (day 28) [1]: 90 mm^3
- T/C relative tumor proliferation rate [1]: −49%
- TGI tumor growth inhibition [1]: 149%
- F [2]: 66.9%
- clearance in rat plasma (in words) [2]: lower clearance
- half-life in rat plasma (in words) [2]: longer half-life
- level of exposure at 24 h in rat plasma (in words) [2]: high level of exposure
- Cmax [2]: 225 ng/mL
- Tmax [2]: 8 h
- clearance [2]: 14.1 mL/min/kg
- half-life [2]: 9.38 h
- AUC(0-t) [2]: 3580 ng·h/mL
- Tumor volume (day 0) ([3]; Colo-205 model, baseline at start of dosing, mesylate, 50 mg/kg PO × 28 days): 198 mm^3
- antitumor effect compared with Abemaciclib (in words) ([3]; Colo-205 model, same dosage (50 mg/kg PO × 28 days)): better antitumor effect than positive control compound Abemaciclib
- Tumor volume (day 28) ([3]; Colo-205 model, mesylate, 50 mg/kg PO × 28 days): 591 mm^3
- T/C relative tumor proliferation rate [3, 4]: 18.2%
- TGI tumor growth inhibition rate [3, 4]: 81.8%
- inhibitory effect on the tumor growth (in words) ([3]; Colo-205 nude mouse model, 50 mg/kg, continuous PO administration for 28 days): strong inhibitory effect
- IC50 (CDK1/CyclinB): 100 to 500 nM

Structure (SMILES): CCN1CCC(=Cc2ccc(Nc3ncc(F)c(-c4cc(F)c5nc(C)n(C(C)C)c5c4)n3)nc2)CC1 [Example 57, N-(5-((1-ethylpiperidin-4-ylidene)methyl)pyridin-2-yl)-5-fluoro-4-(4-fluoro-1-isopropyl-2-methyl-1H-benzo[d]imidazol-6-yl)pyrimidin-2-amine]
- inhibitory effect on the tumor growth (in words) [1]: very strong inhibitory effect
- Tumor volume (day 0) [1]: 175 mm^3
- Tumor volume (day 28) [1]: 99 mm^3
- T/C relative tumor proliferation rate [1]: −43%
- TGI tumor growth inhibition [1]: 143%
- F [2]: 57.6%
- clearance in rat plasma (in words) [2]: lower clearance
- half-life in rat plasma (in words) [2]: longer half-life
- level of exposure at 24 h in rat plasma (in words) [2]: high level of exposure
- Cmax [2]: 205 ng/mL
- Tmax [2]: 8 h
- clearance [2]: 14.8 mL/min/kg
- half-life [2]: 11.7 h
- AUC(0-t) [2]: 3080 ng·h/mL
- IC50 (CDK1/CyclinB): 100 to 500 nM
